Measured values published in patent publication US11357779B2 (G1 Therapeutics, Inc., priority 2018, dated 2022).
Like-named read-outs stand apart in the source and are kept apart here.

Test: Noncompartmental pharmacokinetic parameters (Cmax, Tmax, AUC, Racc) in QD and BID cohorts of Form B
Format: in vivo, human
Conditions: human, plasma, oral, Compound III
Procedure: Analysis of plasma concentration versus time data for calculation of standard pharmacokinetic (PK) parameters following oral administration was conducted using Phoenix WinNonlin version 6.3 using actual blood sampling times.
The following pharmacokinetic parameters were calculated from the concentration versus time data obtained in Example 1 for each of the above QD (200 mg, 300 mg, 400 mg, 500 mg, or 650 mg dosed) and BID (100 mg, 150 mg, or 200 mg doses) Form B of Compound II dosage cohorts: • Cmax—the observed peak plasma concentration determined from the plasma concentration versus time data obtained on Day 1 and Day 29, as applicable; • Tmax—the time to reach the observed peak plasma concentration from the plasma concentration versus time data obtained on Day 1 and Day 29, as applicable; • AUC—area under the plasma concentration versus time curve during a dosing interval on Day 1 and Day 29, as applicable; and • Racc—accumulation ratio calculated as AUCDay 29/AUCDay 1.

O=C1NCC2(CCCCC2)n2c1cc1cnc(Nc3ccc(N4CCNCC4)cn3)nc12 [Compound III, 2′-((5-(piperazin-1-yl)pyridin-2-yl)amino)-7′,8′-dihydro-6′H-spiro[cyclohexane-1,9′-pyrazino[1′,2′:1,5]pyrrolo[2,3-d]pyrimidin]-6′-one]
AUC(0-t) (150 mg, 150 mg BID of Form B, Cohort 7, Day 1, read-out: AUClast (Median)): 16.3 ng·h/mL | Cmax (150 mg, 150 mg BID of Form B, Cohort 7, Day 1, read-out: Cmax (Mean)): 3.2 ng/mL | Cmax (150 mg, 150 mg BID of Form B, Cohort 7, Day 1, read-out: Cmax (Median)): 3 ng/mL | Tmax (150 mg, 150 mg BID of Form B, Cohort 7, Day 1, read-out: Tmax (Mean)): 3 h | Tmax (150 mg, 150 mg BID of Form B, Cohort 7, Day 1, read-out: Tmax (Median)): 3 h | AUC(0-t) (150 mg, 150 mg BID of Form B, Cohort 7, Day 29, read-out: AUClast (Mean)): 47.9 ng·h/mL | AUC(0-t) (150 mg, 150 mg BID of Form B, Cohort 7, Day 29, read-out: AUClast (Median)): 23.3 ng·h/mL | Cmax (150 mg, 150 mg BID of Form B, Cohort 7, Day 29, read-out: Cmax (Mean)): 6.23 ng/mL | Cmax (150 mg, 150 mg BID of Form B, Cohort 7, Day 29, read-out: Cmax (Median)): 3.55 ng/mL | Tmax (150 mg, 150 mg BID of Form B, Cohort 7, Day 29, read-out: Tmax (Mean)): 3 h | Tmax (150 mg, 150 mg BID of Form B, Cohort 7, Day 29, read-out: Tmax (Median)): 3 h | AUC(0-t) (200 mg, 200 mg BID of Form B, Cohort 8, Day 1, read-out: AUClast (Mean)): 17.2 ng·h/mL | AUC(0-t) (200 mg, 200 mg BID of Form B, Cohort 8, Day 1, read-out: AUClast (Median)): 18.6 ng·h/mL | Cmax (200 mg, 200 mg BID of Form B, Cohort 8, Day 1, read-out: Cmax (Mean)): 2.87 ng/mL | Cmax (200 mg, 200 mg BID of Form B, Cohort 8, Day 1, read-out: Cmax (Median)): 3 ng/mL | Tmax (200 mg, 200 mg BID of Form B, Cohort 8, Day 1, read-out: Tmax (Mean)): 4.75 h | Tmax (200 mg, 200 mg BID of Form B, Cohort 8, Day 1, read-out: Tmax (Median)): 5 h | AUC(0-t) (200 mg, 200 mg BID of Form B, Cohort 8, Day 29, read-out: AUClast (Mean)): 22 ng·h/mL | AUC(0-t) (200 mg, 200 mg BID of Form B, Cohort 8, Day 29, read-out: AUClast (Median)): 20.1 ng·h/mL | Cmax (200 mg, 200 mg BID of Form B, Cohort 8, Day 29, read-out: Cmax (Mean)): 2.79 ng/mL | Cmax (200 mg, 200 mg BID of Form B, Cohort 8, Day 29, read-out: Cmax (Median)): 2.77 ng/mL | Tmax (200 mg, 200 mg BID of Form B, Cohort 8, Day 29, read-out: Tmax (Mean)): 6.33 h | Tmax (200 mg, 200 mg BID of Form B, Cohort 8, Day 29, read-out: Tmax (Median)): 4 h | AUC(0-t) (200 mg, 200 mg QD of Form B, Cohort 1, Day 1, read-out: AUClast (Mean)): 23.7 ng·h/mL | AUC(0-t) (200 mg, 200 mg QD of Form B, Cohort 1, Day 1, read-out: AUClast (Median)): 21.3 ng·h/mL | Cmax (200 mg, 200 mg QD of Form B, Cohort 1, Day 1, read-out: Cmax (Mean)): 4.18 ng/mL | Cmax (200 mg, 200 mg QD of Form B, Cohort 1, Day 1, read-out: Cmax (Median)): 3.88 ng/mL | Tmax (200 mg, 200 mg QD of Form B, Cohort 1, Day 1, read-out: Tmax (Mean)): 4.17 h | Tmax (200 mg, 200 mg QD of Form B, Cohort 1, Day 1, read-out: Tmax (Median)): 4 h | AUC(0-t) (200 mg, 200 mg QD of Form B, Cohort 1, Day 29, read-out: AUClast (Mean)): 27.9 ng·h/mL | AUC(0-t) (200 mg, 200 mg QD of Form B, Cohort 1, Day 29, read-out: AUClast (Median)): 25.4 ng·h/mL | Cmax (200 mg, 200 mg QD of Form B, Cohort 1, Day 29, read-out: Cmax (Mean)): 3.14 ng/mL | Cmax (200 mg, 200 mg QD of Form B, Cohort 1, Day 29, read-out: Cmax (Median)): 2.52 ng/mL | Tmax (200 mg, 200 mg QD of Form B, Cohort 1, Day 29, read-out: Tmax (Mean)): 4.2 h | Tmax (200 mg, 200 mg QD of Form B, Cohort 1, Day 29, read-out: Tmax (Median)): 4 h | AUC(0-t) (300 mg, 300 mg QD of Form B, Cohort 2, Day 1, read-out: AUClast (Mean)): 43.1 ng·h/mL | AUC(0-t) (300 mg, 300 mg QD of Form B, Cohort 2, Day 1, read-out: AUClast (Median)): 53.1 ng·h/mL | Cmax (300 mg, 300 mg QD of Form B, Cohort 2, Day 1, read-out: Cmax (Mean)): 4.81 ng/mL | Cmax (300 mg, 300 mg QD of Form B, Cohort 2, Day 1, read-out: Cmax (Median)): 6.21 ng/mL | Tmax (300 mg, 300 mg QD of Form B, Cohort 2, Day 1, read-out: Tmax (Mean)): 3.67 h | Tmax (300 mg, 300 mg QD of Form B, Cohort 2, Day 1, read-out: Tmax (Median)): 4 h | AUC(0-t) (300 mg, 300 mg QD of Form B, Cohort 2, Day 29, read-out: AUClast (Mean)): 66.2 ng·h/mL | AUC(0-t) (300 mg, 300 mg QD of Form B, Cohort 2, Day 29, read-out: AUClast (Median)): 56.1 ng·h/mL | Cmax (300 mg, 300 mg QD of Form B, Cohort 2, Day 29, read-out: Cmax (Mean)): 5.44 ng/mL | Cmax (300 mg, 300 mg QD of Form B, Cohort 2, Day 29, read-out: Cmax (Median)): 5.56 ng/mL | Tmax (300 mg, 300 mg QD of Form B, Cohort 2, Day 29, read-out: Tmax (Mean)): 5.33 h | Tmax (300 mg, 300 mg QD of Form B, Cohort 2, Day 29, read-out: Tmax (Median)): 4 h | AUC(0-t) (400 mg, 400 mg QD of Form B, Cohort 3, Day 1, read-out: AUClast (Mean)): 25.6 ng·h/mL | AUC(0-t) (400 mg, 400 mg QD of Form B, Cohort 3, Day 1, read-out: AUClast (Median)): 29.2 ng·h/mL | Cmax (400 mg, 400 mg QD of Form B, Cohort 3, Day 1, read-out: Cmax (Mean)): 4.85 ng/mL | Cmax (400 mg, 400 mg QD of Form B, Cohort 3, Day 1, read-out: Cmax (Median)): 4.66 ng/mL | Tmax (400 mg, 400 mg QD of Form B, Cohort 3, Day 1, read-out: Tmax (Mean)): 4.33 h | Tmax (400 mg, 400 mg QD of Form B, Cohort 3, Day 1, read-out: Tmax (Median)): 6 h | AUC(0-t) (400 mg, 400 mg QD of Form B, Cohort 3, Day 29, read-out: AUClast (Mean)): 42.6 ng·h/mL | AUC(0-t) (400 mg, 400 mg QD of Form B, Cohort 3, Day 29, read-out: AUClast (Median)): 40.9 ng·h/mL | Cmax (400 mg, 400 mg QD of Form B, Cohort 3, Day 29, read-out: Cmax (Mean)): 3.5 ng/mL | Cmax (400 mg, 400 mg QD of Form B, Cohort 3, Day 29, read-out: Cmax (Median)): 3.4 ng/mL | Tmax (400 mg, 400 mg QD of Form B, Cohort 3, Day 29, read-out: Tmax (Mean)): 5.33 h | Tmax (400 mg, 400 mg QD of Form B, Cohort 3, Day 29, read-out: Tmax (Median)): 6 h | AUC(0-t) (500 mg, 500 mg QD of Form B, Cohort 4, Day 1, read-out: AUClast (Mean)): 77.7 ng·h/mL | AUC(0-t) (500 mg, 500 mg QD of Form B, Cohort 4, Day 1, read-out: AUClast (Median)): 79 ng·h/mL | Cmax (500 mg, 500 mg QD of Form B, Cohort 4, Day 1, read-out: Cmax (Mean)): 7.98 ng/mL | Cmax (500 mg, 500 mg QD of Form B, Cohort 4, Day 1, read-out: Cmax (Median)): 8.03 ng/mL | Tmax (500 mg, 500 mg QD of Form B, Cohort 4, Day 1, read-out: Tmax (Mean)): 5.5 h | Tmax (500 mg, 500 mg QD of Form B, Cohort 4, Day 1, read-out: Tmax (Median)): 6 h | AUC(0-t) (500 mg, 500 mg QD of Form B, Cohort 4, Day 29, read-out: AUClast (Mean)): 66.4 ng·h/mL | AUC(0-t) (500 mg, 500 mg QD of Form B, Cohort 4, Day 29, read-out: AUClast (Median)): 69.6 ng·h/mL | Cmax (500 mg, 500 mg QD of Form B, Cohort 4, Day 29, read-out: Cmax (Mean)): 5.98 ng/mL | Cmax (500 mg, 500 mg QD of Form B, Cohort 4, Day 29, read-out: Cmax (Median)): 5.37 ng/mL | Tmax (500 mg, 500 mg QD of Form B, Cohort 4, Day 29, read-out: Tmax (Mean)): 3.67 h | Tmax (500 mg, 500 mg QD of Form B, Cohort 4, Day 29, read-out: Tmax (Median)): 4 h | AUC(0-t) (650 mg, 650 mg QD of Form B, Cohort 5, Day 1, read-out: AUClast (Mean)): 123 ng·h/mL | AUC(0-t) (650 mg, 650 mg QD of Form B, Cohort 5, Day 1, read-out: AUClast (Median)): 125 ng·h/mL | Cmax (650 mg, 650 mg QD of Form B, Cohort 5, Day 1, read-out: Cmax (Mean)): 10.9 ng/mL | Cmax (650 mg, 650 mg QD of Form B, Cohort 5, Day 1, read-out: Cmax (Median)): 10.4 ng/mL | Tmax (650 mg, 650 mg QD of Form B, Cohort 5, Day 1, read-out: Tmax (Mean)): 6.67 h | Tmax (650 mg, 650 mg QD of Form B, Cohort 5, Day 1, read-out: Tmax (Median)): 7 h | AUC(0-t) (650 mg, 650 mg QD of Form B, Cohort 5, Day 29, read-out: AUClast (Mean)): 125 ng·h/mL | AUC(0-t) (650 mg, 650 mg QD of Form B, Cohort 5, Day 29, read-out: AUClast (Median)): 125 ng·h/mL | Cmax (650 mg, 650 mg QD of Form B, Cohort 5, Day 29, read-out: Cmax (Mean)): 8.7 ng/mL | Cmax (650 mg, 650 mg QD of Form B, Cohort 5, Day 29, read-out: Cmax (Median)): 8.7 ng/mL | Tmax (650 mg, 650 mg QD of Form B, Cohort 5, Day 29, read-out: Tmax (Mean)): 7 h | Tmax (650 mg, 650 mg QD of Form B, Cohort 5, Day 29, read-out: Tmax (Median)): 7 h
